PubChem BioAssay (NCI)
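A five-concentration, 48-hour dose response in 96-well plates underlies each endpoint, interpolated linearly between surrounding concentrations. GI50 marks 50% less growth. TGI: total growth inhibition.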

Legend:
Test in all cases: NCI-60 cell line screen, 48 h
HCT-15 colon = tested on: HCT-15 colon
OVCAR-5 ovarian = tested on: OVCAR-5 ovarian
BT-549 breast = tested on: BT-549 breast
OVCAR-3 ovarian = tested on: OVCAR-3 ovarian
NCI/ADR-RES ovarian = tested on: NCI/ADR-RES ovarian
OVCAR-8 ovarian = tested on: OVCAR-8 ovarian
UACC-62 melanoma = tested on: UACC-62 melanoma
ACHN renal = tested on: ACHN renal
M14 melanoma = tested on: M14 melanoma
HS 578T breast = tested on: HS 578T breast
SR leukemia = tested on: SR leukemia
MALME-3M melanoma = tested on: MALME-3M melanoma
LOX IMVI melanoma = tested on: LOX IMVI melanoma
SK-OV-3 ovarian = tested on: SK-OV-3 ovarian
SN12C renal = tested on: SN12C renal
UACC-257 melanoma = tested on: UACC-257 melanoma
UO-31 renal = tested on: UO-31 renal
NCI-H460 lung = tested on: NCI-H460 lung
HOP-92 NSCLC = tested on: HOP-92 NSCLC
MOLT-4 leukemia = tested on: MOLT-4 leukemia
OVCAR-4 ovarian = tested on: OVCAR-4 ovarian
HCC-2998 colon = tested on: HCC-2998 colon
RPMI-8226 leukemia = tested on: RPMI-8226 leukemia
U251 CNS = tested on: U251 CNS
HOP-62 NSCLC = tested on: HOP-62 NSCLC
A549 NSCLC = tested on: A549 NSCLC
NCI-H226 lung = tested on: NCI-H226 lung
A498 renal = tested on: A498 renal
NCI-H23 lung = tested on: NCI-H23 lung
COLO 205 colon = tested on: COLO 205 colon
SNB-75 CNS = tested on: SNB-75 CNS
SK-MEL-5 melanoma = tested on: SK-MEL-5 melanoma
SF-268 CNS = tested on: SF-268 CNS
SF-295 CNS = tested on: SF-295 CNS
IGROV1 ovarian = tested on: IGROV1 ovarian
DU-145 prostate = tested on: DU-145 prostate
MDA-MB-231 breast = tested on: MDA-MB-231 breast
KM12 colon = tested on: KM12 colon
HT29 colon = tested on: HT29 colon
RXF 393 renal = tested on: RXF 393 renal
T-47D breast = tested on: T-47D breast
SF-539 CNS = tested on: SF-539 CNS
MCF7 breast = tested on: MCF7 breast
HL-60(TB) leukemia = tested on: HL-60(TB) leukemia
K-562 leukemia = tested on: K-562 leukemia
HCT-116 colon = tested on: HCT-116 colon
CCRF-CEM leukemia = tested on: CCRF-CEM leukemia
MDA-MB-435 = tested on: MDA-MB-435
SK-MEL-28 melanoma = tested on: SK-MEL-28 melanoma
786-0 renal = tested on: 786-0 renal
PC-3 prostate = tested on: PC-3 prostate
CAKI-1 renal = tested on: CAKI-1 renal
SW-620 colon = tested on: SW-620 colon
SK-MEL-2 melanoma = tested on: SK-MEL-2 melanoma
SNB-19 CNS = tested on: SNB-19 CNS
EKVX NSCLC = tested on: EKVX NSCLC
TK-10 renal = tested on: TK-10 renal

NCCOCCOCCNc1nc(-c2ccccc2)nc(N2CCN(c3ccccn3)CC2)n1 gave a GI50 (HCT-15 colon) of 13.1 µM, a TGI (HCT-15 colon) of 27.9 µM and a GI50 (OVCAR-5 ovarian) of 16.1 µM. It also gave a TGI (OVCAR-5 ovarian) of 30.4 µM, a GI50 (BT-549 breast) of 11.6 µM and a TGI (BT-549 breast) of 24 µM. For the same compound, the GI50 (OVCAR-3 ovarian) was 16.6 µM, the TGI (OVCAR-3 ovarian) was 30.4 µM and the GI50 (NCI/ADR-RES ovarian) was 16 µM. It also gave a TGI (NCI/ADR-RES ovarian) of 32.4 µM, a GI50 (OVCAR-8 ovarian) of 15.8 µM and a TGI (OVCAR-8 ovarian) of 34.5 µM. The GI50 (UACC-62 melanoma) was 6.76 µM, the TGI (UACC-62 melanoma) was 19.4 µM and the GI50 (ACHN renal) was 14.5 µM. It also gave a TGI (ACHN renal) of 27.9 µM, a GI50 (M14 melanoma) of 2.16 µM and a TGI (M14 melanoma) of 5.31 µM. For the same compound, the GI50 (HS 578T breast) was 15.4 µM, the TGI (HS 578T breast) was 41 µM and the GI50 (SR leukemia) was 1.62 µM. For the same compound, the TGI (SR leukemia) was 4.64 µM, the GI50 (MALME-3M melanoma) was 11.3 µM and the TGI (MALME-3M melanoma) was 26.2 µM. For the same compound, the GI50 (LOX IMVI melanoma) was 8.3 µM, the TGI (LOX IMVI melanoma) was 21.3 µM and the GI50 (SK-OV-3 ovarian) was 18.8 µM. The TGI (SK-OV-3 ovarian) was 34.2 µM, the GI50 (SN12C renal) was 17.1 µM and the TGI (SN12C renal) was 32.8 µM. It also gave a GI50 (UACC-257 melanoma) of 3.23 µM, a TGI (UACC-257 melanoma) of 12.9 µM and a GI50 (UO-31 renal) of 12.7 µM. The TGI (UO-31 renal) was 25.8 µM, the GI50 (NCI-H460 lung) was 16.5 µM and the TGI (NCI-H460 lung) was 34.9 µM. For the same compound, the GI50 (HOP-92 NSCLC) was 1.84 µM, the TGI (HOP-92 NSCLC) was 11.1 µM and the GI50 (MOLT-4 leukemia) was 12.8 µM. For the same compound, the TGI (MOLT-4 leukemia) was 29.4 µM, the GI50 (OVCAR-4 ovarian) was 13.4 µM and the TGI (OVCAR-4 ovarian) was 26.3 µM. For the same compound, the GI50 (HCC-2998 colon) was 8.86 µM, the TGI (HCC-2998 colon) was 22.3 µM and the GI50 (RPMI-8226 leukemia) was 13.5 µM. It also gave a TGI (RPMI-8226 leukemia) of 34.2 µM, a GI50 (U251 CNS) of 12.1 µM and a TGI (U251 CNS) of 26.3 µM. For the same compound, the GI50 (HOP-62 NSCLC) was 16.7 µM, the TGI (HOP-62 NSCLC) was 31 µM and the GI50 (A549 NSCLC) was 14.4 µM. For the same compound, the TGI (A549 NSCLC) was 30.1 µM, the GI50 (NCI-H226 lung) was 17.1 µM and the TGI (NCI-H226 lung) was 32.3 µM. For the same compound, the GI50 (A498 renal) was 3.91 µM, the TGI (A498 renal) was 18.4 µM and the GI50 (NCI-H23 lung) was 16.6 µM. The TGI (NCI-H23 lung) was 31.3 µM, the GI50 (COLO 205 colon) was 6.35 µM and the TGI (COLO 205 colon) was 21.1 µM. The GI50 (SNB-75 CNS) was 14.3 µM, the TGI (SNB-75 CNS) was 30.2 µM and the GI50 (SK-MEL-5 melanoma) was 8.37 µM. It also gave a TGI (SK-MEL-5 melanoma) of 20.9 µM, a GI50 (SF-268 CNS) of 15.9 µM and a TGI (SF-268 CNS) of 30.8 µM. The GI50 (SF-295 CNS) was 17.5 µM, the TGI (SF-295 CNS) was 36 µM and the GI50 (IGROV1 ovarian) was 18.2 µM. It also gave a TGI (IGROV1 ovarian) of 34.4 µM, a GI50 (DU-145 prostate) of 15.2 µM and a TGI (DU-145 prostate) of 28.7 µM. For the same compound, the GI50 (MDA-MB-231 breast) was 14.5 µM, the TGI (MDA-MB-231 breast) was 28.8 µM and the GI50 (KM12 colon) was 16.1 µM. It also gave a TGI (KM12 colon) of 31 µM, a GI50 (HT29 colon) of 4.55 µM and a TGI (HT29 colon) of 17.6 µM. For the same compound, the GI50 (RXF 393 renal) was 10.1 µM, the TGI (RXF 393 renal) was 22.8 µM and the GI50 (T-47D breast) was 11.7 µM. The TGI (T-47D breast) was 30.3 µM, the GI50 (SF-539 CNS) was 17.6 µM and the TGI (SF-539 CNS) was 33.1 µM. The GI50 (MCF7 breast) was 12.5 µM, the TGI (MCF7 breast) was 32.2 µM and the GI50 (HL-60(TB) leukemia) was 9.47 µM. The TGI (HL-60(TB) leukemia) was 26.5 µM, the GI50 (K-562 leukemia) was 7.87 µM and the TGI (K-562 leukemia) was 22.9 µM. The GI50 (HCT-116 colon) was 10 µM, the TGI (HCT-116 colon) was 22.6 µM and the GI50 (CCRF-CEM leukemia) was 14.3 µM. It also gave a TGI (CCRF-CEM leukemia) of 33.2 µM, a GI50 (MDA-MB-435) of 11.4 µM and a TGI (MDA-MB-435) of 24.5 µM. The GI50 (SK-MEL-28 melanoma) was 3.9 µM, the TGI (SK-MEL-28 melanoma) was 13.8 µM and the GI50 (786-0 renal) was 12.6 µM. It also gave a TGI (786-0 renal) of 26 µM, a GI50 (PC-3 prostate) of 15.7 µM and a TGI (PC-3 prostate) of 30.8 µM. It also gave a GI50 (CAKI-1 renal) of 15.9 µM, a TGI (CAKI-1 renal) of 31.5 µM and a GI50 (SW-620 colon) of 13.2 µM. For the same compound, the TGI (SW-620 colon) was 28.4 µM.
For OC(c1ccc(C(F)(F)F)cc1)C(F)(F)c1nc2ccccc2o1 (configuration not stated), the TGI (HCT-15 colon) was greater than 100 µM, the TGI (BT-549 breast) was greater than 100 µM and the TGI (NCI/ADR-RES ovarian) was greater than 100 µM. It also gave a TGI (OVCAR-8 ovarian) greater than 100 µM, a TGI (UACC-62 melanoma) greater than 100 µM and a TGI (ACHN renal) greater than 100 µM. The TGI (M14 melanoma) was greater than 100 µM, the TGI (HS 578T breast) was greater than 100 µM and the TGI (SR leukemia) was greater than 100 µM. The TGI (LOX IMVI melanoma) was greater than 100 µM, the TGI (SK-OV-3 ovarian) was greater than 100 µM and the TGI (UACC-257 melanoma) was greater than 100 µM. For the same compound, the TGI (UO-31 renal) was greater than 100 µM, the TGI (NCI-H460 lung) was greater than 100 µM and the TGI (HOP-92 NSCLC) was greater than 100 µM. For the same compound, the TGI (SK-MEL-2 melanoma) was greater than 100 µM, the TGI (MOLT-4 leukemia) was greater than 100 µM and the TGI (OVCAR-4 ovarian) was greater than 100 µM. For the same compound, the TGI (HCC-2998 colon) was greater than 100 µM, the TGI (SNB-19 CNS) was greater than 100 µM and the TGI (RPMI-8226 leukemia) was greater than 100 µM. The TGI (U251 CNS) was greater than 100 µM, the TGI (EKVX NSCLC) was greater than 100 µM and the TGI (TK-10 renal) was greater than 100 µM. It also gave a TGI (HOP-62 NSCLC) greater than 100 µM, a TGI (NCI-H226 lung) greater than 100 µM and a TGI (NCI-H23 lung) greater than 100 µM. For the same compound, the TGI (COLO 205 colon) was greater than 100 µM, the TGI (SNB-75 CNS) was greater than 100 µM and the TGI (SK-MEL-5 melanoma) was greater than 100 µM. It also gave a TGI (SF-268 CNS) greater than 100 µM, a TGI (SF-295 CNS) greater than 100 µM and a TGI (IGROV1 ovarian) greater than 100 µM. The TGI (DU-145 prostate) was greater than 100 µM, the TGI (MDA-MB-231 breast) was greater than 100 µM and the TGI (KM12 colon) was greater than 100 µM. It also gave a TGI (HT29 colon) greater than 100 µM, a TGI (RXF 393 renal) greater than 100 µM and a TGI (T-47D breast) greater than 100 µM. The TGI (SF-539 CNS) was greater than 100 µM, the TGI (MCF7 breast) was greater than 100 µM and the TGI (HL-60(TB) leukemia) was greater than 100 µM. The TGI (K-562 leukemia) was greater than 100 µM, the TGI (HCT-116 colon) was greater than 100 µM and the TGI (CCRF-CEM leukemia) was greater than 100 µM. It also gave a TGI (MDA-MB-435) greater than 100 µM, a TGI (SK-MEL-28 melanoma) greater than 100 µM and a TGI (786-0 renal) greater than 100 µM. It also gave a TGI (PC-3 prostate) greater than 100 µM, a TGI (CAKI-1 renal) greater than 100 µM and a TGI (SW-620 colon) greater than 100 µM.
